Source: patent publication US11884647B2, “Compounds and methods for targeting pathogenic blood vessels” (THE REGENTS OF THE UNIVERSITY OF CALIFORNIA, priority 2019, dated 2024)

Key:
[1] = test system: tumor endothelial cells (CT26.CL25 colon cancer tumor); test: Colon CT26 ex vivo model of tumor angiogenesis; assay type: cell-based; conditions: Mus musculus, CT26, 48 h, read-out: Cell death
How it was run: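 Explant pieces of CT26 tumor (about 0.075 mm^3) were embedded in Matrigel and grown in endothelial growth medium at 37 °C for about 7 days until endothelial outgrowth appeared, then treated. Cell death was read about 48 h after drug addition by fluorescein diacetate (live) and propidium iodide (dead) staining with red/green imaging.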

[2] = test system: tumor endothelial cells (LL/2 lung cancer tumor); test: Lung LL2 ex vivo model of tumor angiogenesis; assay type: cell-based, mouse; conditions: for cytotoxicity at 40 µM / cytotoxicity at 20 µM: Mus musculus, Endothelial cell, 48 h, read-out: Cell death; for Cell death: Lung LL2 ex vivo, drug treatment two days
How it was run: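 Mouse LL2 tumor fragments (~0.5×0.5×0.3 mm) embedded in Matrigel and grown in endothelial growth medium at 37° C until endothelial outgrowth (about 4 days) before drug treatment. About 48 h after drug addition, stained 10 min with fluorescein diacetate/propidium iodide; live (green) and dead (red) cells imaged at 2× with fixed channel settings.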

Row | Structure (SMILES) | cytotoxicity at 40 µM [1] [%] | cytotoxicity at 40 µM [2] [%] | further results
1 | CCc1ccc(S(=O)(=O)c2cnc3ccc(CC#N)cc3c2N2CCC(N3CCCCC3)CC2)cc1 [compound 55, 2-(4-([1,4′-bipiperidin]-1′-yl)-3-((4-ethylphenyl)sulfonyl)quinolin-6-yl)acetonitrile] | 50 | 70 | 
2 | CCCCCCCOc1ccc(S(=O)(=O)c2cnc3ccc(SC)cc3c2N2CCC(N3CCCCC3)CC2)cc1 [compound 219, 4-([1,4′-bipiperidin]-1′-yl)-3-((4-(heptyloxy)phenyl)sulfonyl)-6-(methylthio)quinoline] | 90 | 60 | 
3 | CCOC(=O)c1ccc2ncc(S(=O)(=O)c3ccc(OC)cc3)c(N(CCO)CCO)c2c1 [compound 156, ethyl 4-(bis(2-hydroxyethyl)amino)-3-((4-methoxyphenyl)sulfonyl)quinoline-6-carboxylate] | 0 |  | Cell death ([2]; Conc. 40 μm): 30%
4 | COc1ccc(S(=O)(=O)c2cnc3ccc(OC(F)(F)F)cc3c2N(CCO)CCO)cc1OC [compound 72, 2,2′-((3-((3,4-dimethoxyphenyl)sulfonyl)-6-(trifluoromethoxy)quinolin-4-yl)azanediyl)bis(ethan-1-ol)] | 0 | 20 | 
5 | COc1ccc(S(=O)(=O)c2cnc3ccc(SC)cc3c2N2CCC(N3CCCCC3)CC2)cc1OC [compound 121, 4-([1,4′-bipiperidin]-1′-yl)-3-((3,4-dimethoxyphenyl)sulfonyl)-6-(methylthio)quinoline] | 40 | 50 | 
6 | CCc1ccc(S(=O)(=O)c2cnc3ccc(OC(F)(F)F)cc3c2-n2nnc3ccccc32)cc1 [compound 112, 4-(1H-benzo[d][1,2,3]triazol-1-yl)-3-((4-ethylphenyl)sulfonyl)-6-(trifluoromethoxy)quinoline] | 10 |  | cytotoxicity at 20 µM [2]: 70%
7 | COc1ccc(S(=O)(=O)c2cnc3ccc([N+](=O)[O-])cc3c2NN2CCN(C)CC2)cc1 [compound 94, 3-((4-methoxyphenyl)sulfonyl)-N-(4-methylpiperazin-1-yl)-6-nitroquinolin-4-amine] | 0 | 20 | 
8 | N#Cc1ccc(S(=O)(=O)c2cnc3ccc(OC(F)(F)F)cc3c2N2CCC(N3CCCCC3)CC2)cc1 [compound 54, 4-((4-([1,4′-bipiperidin]-1′-yl)-6-(trifluoromethoxy)quinolin-3-yl)sulfonyl)benzonitrile] | 10 | 50 | 
9 | CCCCOc1ccc(S(=O)(=O)c2cnc3ccc(OC(F)(F)F)cc3c2N2CCCN(C)CC2)cc1 [compound 151, 3-((4-butoxyphenyl)sulfonyl)-4-(4-methyl-1,4-diazepan-1-yl)-6-(trifluoromethoxy)quinoline] | 100 | 100 | 
10 | CCc1ccc(S(=O)(=O)c2cnc3ccc(OC(F)(F)F)cc3c2N2CCN(c3ccc(C#N)cc3)CC2)cc1 [compound 45, 4-(4-(3-((4-ethylphenyl)sulfonyl)-6-(trifluoromethoxy)quinolin-4-yl)piperazin-1-yl)benzonitrile] | 0 |  | Cell death ([2]; Conc. 40 μm): 10%
11 | CCCCOc1ccc(S(=O)(=O)c2cnc3ccc(C(=O)NC(C)C)cc3c2N2CCCN(C)CC2)cc1 [compound 192, 3-((4-butoxyphenyl)sulfonyl)-N-isopropyl-4-(4-methyl-1,4-diazepan-1-yl)quinoline-6-carboxamide] | 10 | 60 | 
12 | COc1ccc(S(=O)(=O)c2cnc3ccc(OC(F)(F)F)cc3c2N2CCCC(O)C2)cc1OC (stereo not shown) [compound 70, 1-(3-((3,4-dimethoxyphenyl)sulfonyl)-6-(trifluoromethoxy)quinolin-4-yl)piperidin-3-ol] | 10 | 40 | 
13 | CCCCOc1ccc(S(=O)(=O)c2cnc3ccc(C(=O)OCC)cc3c2N2CCSCC2)cc1 [compound 191, ethyl 3-((4-butoxyphenyl)sulfonyl)-4-thiomorpholinoquinoline-6-carboxylate] | 10 | 30 | 
14 | CCCCOc1ccc(S(=O)(=O)c2cnc3ccc(C(=O)OCC)cc3c2N2CCC(N3CCC(O)CC3)CC2)cc1 [compound 161, ethyl 3-((4-butoxyphenyl)sulfonyl)-4-(4-hydroxy-[1,4′-bipiperidin]-1′-yl)quinoline-6-carboxylate] | 100 | 90 | 
15 | CCCCOc1ccc(S(=O)(=O)c2cnc3ccc(OC(F)(F)F)cc3c2N2CCC(N3CCCCC3)CC2)cc1 [compound 119, 4-([1,4′-bipiperidin]-1′-yl)-3-((4-butoxyphenyl)sulfonyl)-6-(trifluoromethoxy)quinoline] |  |  | cytotoxicity at 20 µM [1]: 50%; cytotoxicity at 20 µM [2]: 100%
16 | CCc1ccc(S(=O)(=O)c2cnc3ccc(OC(F)(F)F)cc3c2N2CCC(OCCN(CC)CC)CC2)cc1 [compound 101, N,N-diethyl-2-((1-(3-((4-ethylphenyl)sulfonyl)-6-(trifluoromethoxy)quinolin-4-yl)piperidin-4-yl)oxy)ethan-1-amine] |  |  | cytotoxicity at 20 µM [1]: 50%; Cell death ([2]; Conc. 20 μm): 100%
17 | CCc1ccc(S(=O)(=O)c2cnc3ccc(OC(F)(F)F)cc3c2N2CCCN(CCN(CC)CC)CC2)cc1 [compound 100, N,N-diethyl-2-(4-(3-((4-ethylphenyl)sulfonyl)-6-(trifluoromethoxy)quinolin-4-yl)-1,4-diazepan-1-yl)ethan-1-amine] | 100 | 100 | 
18 | CCCCOc1ccc(S(=O)(=O)c2cnc3ccc(OC(F)(F)F)cc3c2NN2CCN(C)CC2)cc1 [compound 92, 3-((4-butoxyphenyl)sulfonyl)-N-(4-methylpiperazin-1-yl)-6-(trifluoromethoxy)quinolin-4-amine] | 0 |  | cytotoxicity at 20 µM [2]: 10%
19 | CCCCOc1ccc(S(=O)(=O)c2cnc3ccc(C(=O)OCC)cc3c2N2CCC(N3CCCCC3)CC2)cc1 [compound 157, ethyl 4-([1,4′-bipiperidin]-1′-yl)-3-((4-butoxyphenyl)sulfonyl)quinoline-6-carboxylate] | 60 | 100 | 
20 | CCN(CC)c1c(S(=O)(=O)c2ccc(OC)c(OC)c2)cnc2ccc(OC(F)(F)F)cc12 [compound 68, 3-((3,4-dimethoxyphenyl)sulfonyl)-N,N-diethyl-6-(trifluoromethoxy)quinolin-4-amine] | 50 | 80 | 
21 | CCc1ccc(S(=O)(=O)c2cnc3ccc(OC(F)(F)F)cc3c2N2CCC(CO)CC2)cc1 [compound 48, (1-(3-((4-ethylphenyl)sulfonyl)-6-(trifluoromethoxy)quinolin-4-yl)piperidin-4-yl)methanol] | 10 | 60 | 
22 | CCOC(=O)c1ccc2ncc(S(=O)(=O)c3ccc(CC)cc3)c(N3CCCN(C)CC3)c2c1 [compound 63, ethyl 3-((4-ethylphenyl)sulfonyl)-4-(4-methyl-1,4-diazepan-1-yl)quinoline-6-carboxylate] | 70 | 50 | 
23 | CCc1ccc(S(=O)(=O)c2cnc3ccc([N+](=O)[O-])cc3c2N2CCCN(C)CC2)cc1 [compound 76, 3-((4-ethylphenyl)sulfonyl)-4-(4-methyl-1,4-diazepan-1-yl)-6-nitroquinoline] | 100 | 20 | 
